# Data reported in PMC11500415, “Chemical inhibition of stomatal differentiation by perturbation of the master-regulatory bHLH heterodimer via an ACT-Like domain” (Nature Communications, 2024).
# Legend:
# Experiment in all cases: ITC direct binding
# Set-up in all cases: species or system A. thaliana
# MUTE = molecular target: T1, MUTE (Arabidopsis thaliana, UniProt Q9M8K6)
# T1 construct: MUTE (1-202); made in house; host or cells: E. coli BL21
# Excerpt: (§1) A. thaliana SCRM (1-494), ΔNSPCH (98-364), MUTE (1-202), ΔNFAMA (190-414), MUTEΔC (1-114), MUTER133A_R134A, MUTEE162A_E163A, MUTER133A_R134A_E162A_E163A, SCRM-ACTL (405-494), MUTE-ACTL (114-202), SPCH-ACTL (285-364), FAMA-ACTL (306-414), MUTE_ACTLR133A_R134A, MUTE_ACTLE162A_E163A, MUTE_ACTLR133A_R134A_E162A_E163A were cloned into pGEX-4T-1 vector with an N-terminal GST tag and a thrombin cleavage sequence. For protein expression, the constructs were transformed into E. coli strain BL21. For each transformant, a single colony was selected and incubated in 10 ml LB liquid media. The overnight-incubated E. coli suspensions were transferred to 1 L LB medium and incubated at 37 °C for around 2 h until the OD600 reached 0.4–0.6. The isopropyl β-D-1-thiogalactopyranoside ([…] of final concentration) was added to the cultures and the strains were incubated at 22 °C for a further 18 h. GST-fused proteins were purified using glutathione agarose resin. The soluble portion of the cell lysate was loaded onto a GST-Sepharose column. Nonspecifically bound proteins were removed by washing the column with 20 mM Tris pH 8.0, 200 mM NaCl. The bound GST-fused protein was eluted with 10 mm glutathione and 20 mM Tris pH 8.0, 200 mM NaCl. The GST-fused proteins were exchanged with phosphate-buffered saline buffer, and then the solution was treated with 50 μg of thrombin for 10–12 h at 16 ^οC. The GST portion of the protein was cleaved during thrombin digestion, and then the whole solution was reloaded onto the glutathione S-transferase column to obtain pure protein. The purified proteins were further purified by gel filtration on a Superdex-200 (GE) column using fast protein liquid chromatography and phosphate buffer (pH 7.2) as the eluent. The purity of the protein was checked by SDS-PAGE. For detailed lists of oligo DNA and plasmid information, see Supplementary Tables 5, 6, respectively.
# (§2) Binding of the small molecule Stomidazolone (3) to SCRM, MUTE, SPCH, FAMA, MUTEΔC, MUTE_ACTL, SCRM_ACTL, SPCH_ACTL and FAMA_ACTL, MUTER133A_R134A, MUTEE162A_E163A, MUTER133A_R134A_E162A_E163A, as well as SCRM binding to MUTE in the presence and absence of Stomidazolone (3) / AYSJ1059 (5) /AYSJ1061 (6) was characterized at 30 °C using a Malvern PEAQ-ITC microcalorimeter. All the protein samples were dialyzed overnight using PBS buffer containing 2% DMSO and 1 mM DTT. Stomidazolone was dissolved in PBS buffer containing 2% DMSO and 1 mM DTT. Titrations were performed by injecting 1 × 0.5-μL and 12 × 3-μL or 1 × 0.75-μL and 18 × 2-μL or 1 × 0.2-μL and 25 × 1.3-μL aliquots of 1 mM Stomidazolone / AYSJ1059 / AYSJ1061 to 5-30 μM of protein in PBS buffer pH 7.4, containing 2% DMSO and 1 mM DTT. All titrations were carried out at least twice. The raw data were corrected using buffer and protein controls and analyzed using the software supplied by the manufacturer. See Supplementary Table 3 for details.
# SPCH_ACTL = molecular target: T2, SPCH_ACTL (Arabidopsis thaliana, UniProt Q700C7)
# T2 construct: SPCH-ACTL (285-364); GST (N, cleaved yes); made in house; host or cells: E. coli BL21
# Excerpt: as §1, §2
# SPCH = molecular target: T3, SPCH (Arabidopsis thaliana, UniProt Q700C7)
# T3 construct: ΔNSPCH (98-364); made in house; host or cells: E. coli BL21
# Excerpt: as §1, §2
# SCRM = molecular target: T4, SCRM (Arabidopsis thaliana, UniProt Q9LSE2)
# T4 construct: SCRM (1-494); made in house; host or cells: E. coli BL21
# T4 sequence (Q9LSE2 1-494): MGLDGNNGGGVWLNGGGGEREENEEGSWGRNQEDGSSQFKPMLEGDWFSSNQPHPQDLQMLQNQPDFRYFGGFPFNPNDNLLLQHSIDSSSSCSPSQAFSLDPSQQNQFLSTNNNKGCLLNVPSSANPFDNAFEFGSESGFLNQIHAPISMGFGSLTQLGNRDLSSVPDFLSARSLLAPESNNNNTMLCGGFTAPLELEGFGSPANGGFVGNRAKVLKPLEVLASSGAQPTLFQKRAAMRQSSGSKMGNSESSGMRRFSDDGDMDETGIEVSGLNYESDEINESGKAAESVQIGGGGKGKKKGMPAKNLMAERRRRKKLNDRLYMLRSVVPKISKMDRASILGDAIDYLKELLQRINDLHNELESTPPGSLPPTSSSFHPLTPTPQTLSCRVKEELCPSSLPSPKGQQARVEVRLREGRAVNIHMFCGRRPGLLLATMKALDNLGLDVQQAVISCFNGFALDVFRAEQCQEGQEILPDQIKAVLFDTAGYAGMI
# Excerpt: as §1, §2
# FAMA_ACTL = molecular target: T5, FAMA_ACTL (Arabidopsis thaliana, UniProt Q56YJ8)
# T5 construct: FAMA-ACTL (306-414); GST (N, cleaved yes); made in house; host or cells: E. coli BL21
# Excerpt: as §1, §2
# FAMA = molecular target: T6, FAMA (Arabidopsis thaliana, UniProt Q56YJ8)
# T6 construct: ΔNFAMA (190-414); made in house; host or cells: E. coli BL21
# Excerpt: as §1, §2
# T5 sequence (Q56YJ8 306-414): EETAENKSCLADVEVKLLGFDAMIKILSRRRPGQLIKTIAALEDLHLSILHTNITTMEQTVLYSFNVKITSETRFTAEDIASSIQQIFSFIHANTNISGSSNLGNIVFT
# T1 sequence (Q9M8K6 whole entry): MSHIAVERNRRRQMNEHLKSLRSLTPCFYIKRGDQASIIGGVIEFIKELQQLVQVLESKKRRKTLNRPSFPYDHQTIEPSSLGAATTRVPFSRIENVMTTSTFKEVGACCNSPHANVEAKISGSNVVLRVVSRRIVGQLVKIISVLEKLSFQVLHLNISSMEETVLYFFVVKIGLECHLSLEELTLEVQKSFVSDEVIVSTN
# T2 sequence (Q700C7 285-364): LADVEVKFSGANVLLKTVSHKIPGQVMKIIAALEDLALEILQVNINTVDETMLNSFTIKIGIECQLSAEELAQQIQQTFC
# T3 sequence (Q700C7 98-364): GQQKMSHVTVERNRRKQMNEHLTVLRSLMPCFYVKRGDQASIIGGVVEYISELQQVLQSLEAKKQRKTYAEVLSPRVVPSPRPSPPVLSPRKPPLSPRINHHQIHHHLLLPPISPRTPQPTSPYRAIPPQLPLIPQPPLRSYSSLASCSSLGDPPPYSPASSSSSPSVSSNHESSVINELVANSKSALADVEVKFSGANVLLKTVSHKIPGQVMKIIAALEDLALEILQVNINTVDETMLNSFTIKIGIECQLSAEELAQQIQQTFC
# T6 sequence (Q56YJ8 190-414): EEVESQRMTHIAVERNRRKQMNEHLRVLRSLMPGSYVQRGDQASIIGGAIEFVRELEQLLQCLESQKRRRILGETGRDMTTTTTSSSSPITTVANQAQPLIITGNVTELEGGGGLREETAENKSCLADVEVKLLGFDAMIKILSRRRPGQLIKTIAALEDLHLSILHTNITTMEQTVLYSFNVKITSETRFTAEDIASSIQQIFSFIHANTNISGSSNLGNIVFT
structure (smiles),measurement,setting,value
O=C1C(c2ccccc2)=NC(NS(=O)(=O)c2ccccc2)(c2ccccc2)N1S(=O)(=O)c1ccccc1 (centres unmarked) [Stomidazolone],-T△S,MUTE,17.3 ± 0.4
same,Kd,MUTE,7.8 ± 1.1 µM
same,△G,MUTE,-3.3 ± 0.2
same,△H,MUTE,-20.6 ± 0.4
same,-T△S,SPCH_ACTL,3.4 ± 0.2
same,Kd,SPCH_ACTL,96.8 ± 7.6 µM
same,△G,SPCH_ACTL,-2.1 ± 0.2
same,△H,SPCH_ACTL,-5.5 ± 0.3
same,-T△S,SPCH,3.6 ± 0.2
same,Kd,SPCH,79.6 ± 3.6 µM
same,△G,SPCH,-2.6 ± 0.2
same,△H,SPCH,-6.2 ± 0.5
same,-T△S,SCRM,4.1 ± 0.2
same,Kd,SCRM,71.5 ± 5.1 µM
same,△G,SCRM,-4.8 ± 0.2
same,△H,SCRM,-8.9 ± 0.2
same,-T△S,FAMA_ACTL,4.8 ± 0.2
same,Kd,FAMA_ACTL,110 ± 13.8 µM
same,△H,FAMA_ACTL,-8.2 ± 0.5
same,-T△S,FAMA,2.4 ± 0.3
same,Kd,FAMA,80.4 ± 4.1 µM
same,△G,FAMA,-1.8 ± 0.2
same,△H,FAMA,-4.2 ± 0.2
